Experimental data reported in EP0100734A1, “Process for the separation or purification of a sleep promoting factor from a biological source by immunological reaction of the antigen-antibody kind” (ANVAR Agence Nationale de Valorisation de la Recherche, priority 1982, dated 1984).

System: anticorps monoclonaux anti-MDP
Assay: Competitive ELISA: inhibition of binding of MDP-lysine-peroxidase conjugate to captured monoclonal anti-MDP antibody
Set-up: species or system souris
Description: On a recours à la technique antérieurement. décrite dans l'article de BAHR et Coll. déjà mentionné, sous réserve de quelques modifications de détail. Les éléments essentiels de la méthodologie utilisée sont rappelés ci-après.
Les puits de plaques micro-ELISA (commercialisées par la société DYNATECH) sont tapissés avec des fractions Ig d'anticorps de chèvre anti-souris IgM, IgA ou IgG, par maintien en contact avec leurs parois d'une solution contenant 5 ug/ml de la fraction Ig pendant 3 heures à 4°C. Après lavage de la plaque avec une solution de PBS contenant 0,05 % de l'agent de dispersion commercialisé sous la dénomination TWEEN 20, on ajoute des dilutions des surnageants d'hybridomes producteurs d'anticorps anti-MDP aux différents puits et on incube pendant 2 heures à la température ambiante. Les fractions Ig facilitent la retenue des anticorps anti-MDP. Les plaques sont ensuite lavées et une solution de MDP-lysine couplé à de la péroxydase de raifort diluée au 1/1000 est ajoutée aux puits. Les plaques sont ensuite laissées au repos pendant la nuit à 4°C. Après lavage, on détermine les proportions de MDP-lysine-péroxydase fixées dans les puits, en mettant en oeuvre l'ortho-phénylène-diamine et de l'eau oxygénée en tant que substrat de la péroxydase. […]

Row | inhibition (added under the same conditions together with the conjugate, amount not stated) | inhibitions exprimées par des activités (100 µl of MDP solution containing 100 ng, added together with MDP-peroxidase conjugate (1/1000), antibody diluted 1/100 = 100 % activity) | SMILES
1 | aucune inhibition | – | CC(=O)N[C@H]1C(O)O[C@H](CO)[C@@H](O)[C@@H]1O[C@H](C)C(=O)N[C@H](C)C(=O)N[C@H](CCC(=O)O)C(N)=O (stereo partly drawn) [MDP-DD, N-acétyl- muramyl- D-alanyl-D-isoglutamine]
2 | – | 31% | CC(=O)N[C@H]1C(O)O[C@H](CO)[C@@H](O)[C@@H]1O[C@H](C)C(=O)N[C@@H](C)C(=O)N[C@H](CCC(=O)O)C(N)=O (stereo partly drawn) [MDP, M-acétyl-muramyl-L-alanyl-D-isoglutamine]
